Reference: patent publication EP4736861A1, “ORAL COMPOSITION CONTAINING INORGANIC POROUS BODY” (Tanabe Pharma Corporation, priority 2023, dated 2025)

Assay: not given
Details: acidic concomitant drugs; source not stated; cited from earlier work

| SMILES | pKa |
| --- | --- |
| CC(=O)Nc1ccc(CC(=O)O)cc1 [Actarit] | 3.94 |
| Oc1ncnc2[nH]ncc12 [Allopurinol] | 9.50 |

Same assay, conditions: basic concomitant drugs; source not stated; cited from earlier work

| SMILES | pKa of conjugate acid |
| --- | --- |
| Cc1nccn1CC1CCc2c(c3ccccc3n2C)C1=O (stereo not shown) [Ondansetron] | 7.4 |
| CN1CCN2c3ncccc3Cc3ccccc3C2C1 (stereo not shown) [Mirtazapine] | 3.71 |
| CCOC(=O)C1=C[C@@H](OC(CC)CC)[C@H](NC(C)=O)[C@@H](N)C1 [Oseltamivir] | 7.75 |
| COc1ccccc1OCCNCC(O)COc1cccc2[nH]c3ccccc3c12 (stereo not shown) [Carvedilol] | 7.8 |
| Cc1ncc([N+](=O)[O-])n1CCO [Metronidazole] | 2.6 |
| NC(=O)N1c2ccccc2C=Cc2ccccc21 [Carbamazepine] | 7 |
| CC12CC3CC(C)(C1)CC(N)(C3)C2 [Memantine] | 10.58 |
| Clc1ccc(COC(Cn2ccnc2)c2ccc(Cl)cc2Cl)c(Cl)c1 (stereo not shown) [Miconazole] | 5.65 |
| OCCN1C[C@H](O)[C@@H](O)[C@H](O)[C@H]1CO [Miglitol] | 5.9 |
| CCC[C@@H]1C[C@@H](C(=O)N[C@@H]([C@H]2O[C@H](SC)[C@H](O)[C@@H](O)[C@H]2O)[C@@H](C)O)N(C)C1 [Lincomycin] | 7.6 |

Assay: PBPK model: construction and simulation of plasma concentration and urinary excretion
Details: PBPK parameter, mice
Source text: For the construction, in vivo data from the vehicle group of the previously described "In Vivo Study Using a Choline-Load Fasted Mouse Model" and in vivo data from the single-dose PK study were used.
The following steps were applied for the construction of the PBPK model. • * The liver-to-plasma partition coefficient, blood cell-to-plasma partition coefficient, and plasma protein unbound fraction for d9-TMA and d9-TMAO were cited from the report by Shimizu et al.^1), assuming no species difference. • * The liver volume and hepatic blood flow rate were cited from the report by Yamashita et al.^2). • * Using the data from the single intravenous dose PK study of d9-TMA and d9-TMAO, the PK parameters for d9-TMA and d9-TMAO were estimated. […] For d9-TMA, assuming that adsorption equilibrium is reached in the gastrointestinal tract, it was considered to follow the formula: inhibition ratio of d9-TMA absorption from gastrointestinal tract = theoretical acid amount of unadsorbed zeolite / (water volume in the colon × dissociation constant + theoretical acid amount of unadsorbed zeolite), and the dissociation constant of zeolite and d9-TMA was calculated. The water volume in the colon was cited from the value in SimCYP (V23) manufactured by Certara.

| SMILES | conversion ratio from d9-choline to d9-TMA |
| --- | --- |
| [2H]C([2H])([2H])[N+](CCO)(C([2H])([2H])[2H])C([2H])([2H])[2H].[Cl-] [d9-choline] | 0.9324 |

Assay: not given
Details: PBPK parameter; from Shimizu et al.; cited from earlier work

| SMILES | blood cell-to-plasma partition coefficient | liver-to-plasma partition coefficient | plasma protein unbound fraction |
| --- | --- | --- | --- |
| [2H]C([2H])([2H])[N+]([O-])(C([2H])([2H])[2H])C([2H])([2H])[2H] [d9-TMAO] | 0.845 | 0.675 | 0.714 |
| [2H]C([2H])([2H])N(C([2H])([2H])[2H])C([2H])([2H])[2H] [d9-TMA] | 0.719 | 0.752 | 0.9 |
